The values that follow come from paper PMC8620242 (Journal of Advanced Research, 2021).

Series [1] addresses SARS-CoV-2 spike protein (Severe acute respiratory syndrome coronavirus 2, UniProt P0DTC2). Kind of series: biochemical. The series is classed as binding.
The test system of series [2] is Vero E6 cells. The series is classed as cell-based. The following applies: CCK-8.
In series [3] the test system is SARS-CoV-2 pseudovirus. The series is classed as cell-based.
The target of series [4] is nsp7 (Severe acute respiratory syndrome coronavirus 2, UniProt P0DTD1). The series is described as follows: biochemical. The series is classed as binding, SARS-CoV-2.
Series [5] can be described thus: in vivo. Also noted: species or system rats. The following applies: male, Sprague-Dawley, rat, po, 40 mg/kg.
For series [6] the following is noted: male, Sprague-Dawley, rat, in vivo.
In series [7] the target is nsp8 (Severe acute respiratory syndrome coronavirus 2, UniProt P0DTD1). Kind of series: biochemical. The series is classed as binding, SARS-CoV-2.
For series [8], the target named is RBD of SARS-CoV-2 spike protein (Severe acute respiratory syndrome coronavirus 2, UniProt P0DTC2). Kind of series: biochemical. The series is classed as binding.
The nature of series [9]: in vivo. The following applies: male, Sprague-Dawley, rat, po, 40 mg/kg.
For series [10], the target named is ACE2. The note with it: read-out: KD for binding to ACE2; cited from earlier work.

As a reminder, the IC50 is the midpoint of a concentration-inhibition curve. Read a high IC50 as a need for much substance. Regarding `C=C(C)[C@@H]1CC[C@]2(C(=O)O)CC[C@]3(C)[C@H](CC[C@@H]4[C@@]5(C)CC[C@H](O)C(C)(C)[C@@H]5CC[C@]43C)[C@@H]12` [betulinic acid], the 50% inhibitory concentration (IC50) in [1] was found to be 15.1 µM. In addition, the cytotoxicity entry in [2] was “remarkable cytotoxicity”.

Consider `C[C@H]1[C@H](C)CC[C@]2(C(=O)O)CC[C@]3(C)C(=CC[C@@H]4[C@@]5(C)CC[C@H](O)C(C)(C)[C@@H]5CC[C@]43C)[C@H]12` [ursolic acid], for which 9 µM corresponded to half-maximal inhibition in series [1] (IC50). Besides, the cytotoxicity result in series [2] is given as “remarkable cytotoxicity”.

One may read the Kd as the concentration at which binding is half-saturated. What is called Tmax is the time from dosing to the highest level. The half-life is how long it takes for the measured level to halve. Usually inhibition stands for the share of the control response that was lost under treatment. On to `CC1(C)[C@@H](O)CC[C@]2(C)[C@H]3C(=O)C=C4[C@@H]5C[C@@](C)(C(=O)O)CC[C@]5(C)CC[C@@]4(C)[C@]3(C)CC[C@@H]12` [GA, glycyrrhetinic acid], for which the “inhibitory activity in blocking, attachment and entry procedures” value in series [3] is recorded as “significant inhibitory activities”. The dissociation constant (Kd) in [4] came to 384 µM; in [7], 91.2 µM; in series [8] it was 2.33 µM. Besides, in [5], the time to peak (Tmax) was determined as 2 h. The half-life in series [5] is 18.2 h; in series [9], 9.91 h. In [1], this molecule showed an IC50 of 10.9 µM. In addition, the inhibition at 10 µM in series [1] (read-out: inhibition rate against SARS-CoV-2 spike protein by ELISA) is 51.9%. This molecule also gave a maximum plasma concentration in series [6] of 5.68 µM.

On to dalbavacin, for which the equilibrium dissociation constant (Kd) in series [10] is 0.147 µM.

In the case of `CC1(C)[C@@H](O[C@H]2O[C@H](C(=O)O)[C@@H](O)[C@H](O)[C@H]2O[C@@H]2O[C@H](C(=O)O)[C@@H](O)[C@H](O)[C@H]2O)CC[C@]2(C)[C@H]3C(=O)C=C4[C@@H]5C[C@@](C)(C(=O)O)CC[C@]5(C)CC[C@@]4(C)[C@]3(C)CC[C@@H]12` [GA-gg, glycyrrhizic acid], the “activity in the pseudovirus system” value in series [3] is “weak activities”. The molecule also showed a maximum plasma concentration in series [6] of 10.23 µM. Further, the “binding to RBD” value in series [8] (SPR) is given as “very weak bindings”.
